Literature values as cited in patent US20240325362A1, “NOVEL THERAPEUTIC METHOD FOR ENHANCING MITOCHONDRIAL FUNCTION, TREATING MITOCHONDRIAL DISEASES THEREBY, AND COMPOUNDS USED THEREIN” (STANDIGM INC., priority 2020, published 2024).

System: muscle mitochondrial function
Details: clinical study, as an NAD+ precursor

Cc1cnc(C(=O)O)c[n+]1[O-] [acipimox]
effect on muscle mitochondrial function: beneficial effect on muscle mitochondrial function
